From patent US20240261274A1, “TREATMENT OF MYC-DRIVEN CANCERS WITH GSPT1 DEGRADERS” (MONTE ROSA THERAPEUTICS, INC., priority 2021, published 2024) come the findings set out here.

The structures appear in SMILES notation.

What all share (format): cell-based
Holding throughout (details): MM1 S cells, 0.3, 3 and 30 μM, 6 hours

Assay [1] concerns the target T1, CK1alpha (Homo sapiens, UniProt P48729+Q96SW2).
T1 construct: endogenous in cells; host or cells: MM1 S (ATCC CRL-2974)
Kind of assay: Selectivity western blot assay in MM1 S cells, CK1alpha. The arrangement: key: A represents no degradation observed at 30 μM; B represents trace degradation at 30 μM (below 20%); C represents weak degradation at 30 μM (below 50%); D represents degradation at 30 μM (>90%); E represents degradation at 3 μM (>90%); F represents degradation at 0.3 μM (>90%). As to the method:
(§1) MM1 S cells were purchased from ATCC (cat. Number CRL-2974), sub-cultured in 90% RPMI 1640 with 10% FBS, supplemented with 1×P/S and incubated at 37° C., 5% CO2. Compounds were stored as 10 mM DMSO stock. For the assay, MM1 S cells (3 million cells/well) were plated in 6-well plates and incubated over night. Cells were treated with respective compounds using a serial dilution: 0.3 μM, 3 μM and 30 μM as well as a vehicle only (DMSO) control for 6 hours. Media with suspension cells was subsequently transferred to 15 mL conical tubes, wells rinsed twice with ice-cold PBS and merged with cell suspension in respective 15 mL conical tube. Cells were spinned down, supernatant aspirated, pellets resuspended in ice-cold PBS and transferred to microtubes. Cells were spinned down, supernatant aspirated and pellets resuspended in 120 μL RIPA lysis buffer supplemented with protease and phosphatase inhibitors. Cell lysates were incubated on ice for 20 minutes followed by centrifugation at >20,000×g for 5 min. Supernatants were transferred to fresh microtubes and stored at −80° C. Total protein concentration was determined using a BCA assay with a BSA standard curve and concentration of all samples was adjusted to 1 mg/mL. 25 μL 4×LDS sample buffer supplemented with 100 mM DTT was added to 75 μL sample. Samples were centrifuged (8,000×g, 1 min) and incubated at 95° C. for 5 min followed by another centrifugation step (8,000×g, 1 min). 20 μL of each sample was loaded on a 4-12% gel alongside a protein molecular weight marker. Gels were run in the presence of MOPS buffer at 80 Volts for 30 min, followed by 120 Volts for 1.5 h and proteins subsequently transferred onto nitrocellulose membranes at 20 Volts for 7 min using an iBlot2 Gel Transfer Device. Membranes were then cut horizontally into two pieces, covering 80-50 kDa and 50-25 kDa. Blocking the membranes was performed by gently shaking in 5% (w/v) skim milk in TSB-T for 1 hr at room temperature. All primary antibodies were used at a 1/1000 in 5% (w/v) BSA dissolved in TBST and incubated with membranes over night at 4° C. After three washes with 1×TBST for 5 min, HRP-coupled secondary antibodies diluted in 5% (w/v) BSA/TBST (Goat Anti-Rb IgG, dil. 1/10,000; Goat Anti-Mouse IgG, dil. 1/5000) were added for 1 hr at room temperature. After three washes with 1×TBST (5 minutes each), membranes were incubated with ECL reagent for 1 min at room temperature. Chemiluminescence signals were then detected using a LAS-4000 system with default settings and signals quantified using Image Studio Lite software (version 5.2). Membrane parts previously incubated with antibody against CK1 alpha were stripped off antibodies by incubating with stripping buffer for 30 minutes followed by three washed with TBST (5 min each), blocking with 5% (w/v) skim milk for 1 hr, and incubation with primary antibody against uGAPDH overnight at 4° C. Subsequent washes, incubation with secondary antibody and signal acquisition were performed as described above.
On the technique in general: Immunoblotting shows a protein as a band on a membrane.

The target of assay [2] is T2, IKZF3 (Homo sapiens, UniProt Q96SW2+Q9UKT9).
T2 construct: endogenous in cells; host or cells: MM1 S (ATCC CRL-2974)
T2 sequence (Q9UKT9 whole entry): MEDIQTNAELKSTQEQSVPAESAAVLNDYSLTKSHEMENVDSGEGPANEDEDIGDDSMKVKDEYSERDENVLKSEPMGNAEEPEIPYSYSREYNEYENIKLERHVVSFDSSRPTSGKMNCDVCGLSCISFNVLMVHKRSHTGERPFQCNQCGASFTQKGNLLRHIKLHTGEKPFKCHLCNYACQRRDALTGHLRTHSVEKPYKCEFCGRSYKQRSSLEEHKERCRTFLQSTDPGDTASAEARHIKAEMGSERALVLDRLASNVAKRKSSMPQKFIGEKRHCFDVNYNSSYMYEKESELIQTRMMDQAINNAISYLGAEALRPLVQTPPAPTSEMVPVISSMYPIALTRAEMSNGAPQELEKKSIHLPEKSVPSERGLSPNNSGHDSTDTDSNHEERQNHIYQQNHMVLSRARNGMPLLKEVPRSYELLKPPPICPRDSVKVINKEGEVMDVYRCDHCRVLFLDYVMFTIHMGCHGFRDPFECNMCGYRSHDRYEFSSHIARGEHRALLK
T2 sequence (Q96SW2 whole entry): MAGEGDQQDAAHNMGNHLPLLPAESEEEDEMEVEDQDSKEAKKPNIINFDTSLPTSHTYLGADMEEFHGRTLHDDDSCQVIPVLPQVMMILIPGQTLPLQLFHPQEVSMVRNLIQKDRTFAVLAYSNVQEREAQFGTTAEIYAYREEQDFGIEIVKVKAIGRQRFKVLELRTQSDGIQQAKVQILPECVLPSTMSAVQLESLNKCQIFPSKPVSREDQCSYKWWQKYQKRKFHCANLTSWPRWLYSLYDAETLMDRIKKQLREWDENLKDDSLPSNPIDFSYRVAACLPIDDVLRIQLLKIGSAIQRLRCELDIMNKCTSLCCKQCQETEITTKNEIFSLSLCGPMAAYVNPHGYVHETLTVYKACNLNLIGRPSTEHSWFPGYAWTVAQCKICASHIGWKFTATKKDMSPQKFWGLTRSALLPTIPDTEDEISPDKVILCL
T2 sequence (Q16531 whole entry partner): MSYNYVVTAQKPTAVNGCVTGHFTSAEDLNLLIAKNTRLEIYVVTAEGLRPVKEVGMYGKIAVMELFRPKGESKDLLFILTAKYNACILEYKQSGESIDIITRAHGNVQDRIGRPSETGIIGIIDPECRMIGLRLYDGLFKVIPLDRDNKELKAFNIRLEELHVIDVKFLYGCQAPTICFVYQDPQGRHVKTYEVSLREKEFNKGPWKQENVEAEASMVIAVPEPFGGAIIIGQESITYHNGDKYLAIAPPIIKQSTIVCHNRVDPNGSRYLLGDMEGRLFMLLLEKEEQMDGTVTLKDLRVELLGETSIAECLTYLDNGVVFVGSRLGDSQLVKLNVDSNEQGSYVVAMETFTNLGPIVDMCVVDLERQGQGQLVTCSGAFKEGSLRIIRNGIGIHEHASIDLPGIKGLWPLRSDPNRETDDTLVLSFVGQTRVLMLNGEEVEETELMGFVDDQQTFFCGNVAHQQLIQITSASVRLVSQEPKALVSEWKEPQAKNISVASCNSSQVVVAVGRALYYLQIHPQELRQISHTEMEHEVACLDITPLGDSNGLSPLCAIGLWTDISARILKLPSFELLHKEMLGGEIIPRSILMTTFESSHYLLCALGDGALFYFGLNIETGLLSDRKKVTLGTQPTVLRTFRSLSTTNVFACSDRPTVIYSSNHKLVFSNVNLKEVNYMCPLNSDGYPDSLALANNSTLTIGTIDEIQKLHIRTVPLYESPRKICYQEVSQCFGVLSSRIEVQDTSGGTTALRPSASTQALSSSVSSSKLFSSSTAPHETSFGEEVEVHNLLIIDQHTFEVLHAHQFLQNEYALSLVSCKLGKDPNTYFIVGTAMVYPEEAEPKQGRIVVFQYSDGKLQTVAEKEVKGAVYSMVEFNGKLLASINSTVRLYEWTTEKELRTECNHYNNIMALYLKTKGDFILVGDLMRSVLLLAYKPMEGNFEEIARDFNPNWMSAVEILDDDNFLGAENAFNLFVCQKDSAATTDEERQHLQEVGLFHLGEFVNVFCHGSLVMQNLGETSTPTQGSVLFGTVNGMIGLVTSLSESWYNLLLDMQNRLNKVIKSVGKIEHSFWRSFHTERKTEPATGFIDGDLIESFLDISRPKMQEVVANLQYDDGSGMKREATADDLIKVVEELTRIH
Kind of assay: Selectivity western blot assay in MM1 S cells, IKZF3. Also noted: key: A represents no degradation observed at 30 μM; B represents trace degradation at 30 μM (below 20%); C represents weak degradation at 30 μM (below 50%); D represents degradation at 30 μM (>90%); E represents degradation at 3 μM (>90%); F represents degradation at 0.3 μM (>90%). As to the method:
as §1

In assay [3] the target is T3, ZFP91 (Homo sapiens, UniProt Q96JP5+Q96SW2).
T3 construct: endogenous in cells; host or cells: MM1 S (ATCC CRL-2974)
T3 sequence (Q96JP5 whole entry): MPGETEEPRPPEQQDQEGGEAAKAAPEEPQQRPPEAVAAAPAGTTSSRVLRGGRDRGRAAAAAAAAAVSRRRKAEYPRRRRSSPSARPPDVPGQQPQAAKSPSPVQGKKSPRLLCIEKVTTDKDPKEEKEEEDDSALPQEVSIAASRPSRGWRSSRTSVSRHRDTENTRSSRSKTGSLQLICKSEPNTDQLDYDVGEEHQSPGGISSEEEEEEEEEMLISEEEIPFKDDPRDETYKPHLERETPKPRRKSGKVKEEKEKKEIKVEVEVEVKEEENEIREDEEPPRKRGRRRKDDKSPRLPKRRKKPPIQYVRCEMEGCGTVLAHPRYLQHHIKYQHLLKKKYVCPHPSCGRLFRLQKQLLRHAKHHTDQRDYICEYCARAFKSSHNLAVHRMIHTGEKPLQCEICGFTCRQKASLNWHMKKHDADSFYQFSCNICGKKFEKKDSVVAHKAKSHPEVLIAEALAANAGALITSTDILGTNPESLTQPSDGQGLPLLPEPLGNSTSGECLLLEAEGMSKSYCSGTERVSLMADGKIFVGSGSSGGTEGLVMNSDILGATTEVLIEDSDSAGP
T3 sequence (Q96SW2 whole entry): as the sequence (Q96SW2 whole entry) above
T3 sequence (Q16531 whole entry partner): as the sequence (Q16531 whole entry partner) above
Briefly: Selectivity western blot assay in MM1 S cells, ZFP91. Also noted: key: A represents no degradation observed at 30 μM; B represents trace degradation at 30 μM (below 20%); C represents weak degradation at 30 μM (below 50%); D represents degradation at 30 μM (>90%); E represents degradation at 3 μM (>90%); F represents degradation at 0.3 μM (>90%). On the procedure:
as §1

In assay [4] the target is GSPT1 (Homo sapiens, UniProt P15170+Q96SW2). Kind of assay: Selectivity western blot assay in MM1 S cells, GSPT1. The arrangement: endogenous in cells; host or cells: MM1 S (ATCC CRL-2974). As to the method:
as §1

Assay [5] has as its target T4, IKZF1 (Homo sapiens, UniProt Q13422+Q96SW2).
T4 construct: endogenous in cells; host or cells: MM1 S (ATCC CRL-2974)
Briefly: Selectivity western blot assay in MM1 S cells, IKZF1. Also noted: key: A represents no degradation observed at 30 μM; B represents trace degradation at 30 μM (below 20%); C represents weak degradation at 30 μM (below 50%); D represents degradation at 30 μM (>90%); E represents degradation at 3 μM (>90%); F represents degradation at 0.3 μM (>90%). As to the method: as §1

T1 sequence (P48729 whole entry): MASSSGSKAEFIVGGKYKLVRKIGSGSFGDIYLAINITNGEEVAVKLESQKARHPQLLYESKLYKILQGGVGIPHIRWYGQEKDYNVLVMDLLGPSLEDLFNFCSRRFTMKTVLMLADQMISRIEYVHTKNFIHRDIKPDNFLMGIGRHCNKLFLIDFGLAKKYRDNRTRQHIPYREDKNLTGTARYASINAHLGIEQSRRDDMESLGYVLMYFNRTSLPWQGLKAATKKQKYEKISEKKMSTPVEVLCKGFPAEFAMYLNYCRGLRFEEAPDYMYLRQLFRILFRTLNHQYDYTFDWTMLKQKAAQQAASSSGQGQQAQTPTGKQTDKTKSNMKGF
T1 sequence (Q96SW2 whole entry): as the sequence (Q96SW2 whole entry) above
T1 sequence (Q16531 whole entry partner): as the sequence (Q16531 whole entry partner) above
T4 sequence (Q13422 whole entry): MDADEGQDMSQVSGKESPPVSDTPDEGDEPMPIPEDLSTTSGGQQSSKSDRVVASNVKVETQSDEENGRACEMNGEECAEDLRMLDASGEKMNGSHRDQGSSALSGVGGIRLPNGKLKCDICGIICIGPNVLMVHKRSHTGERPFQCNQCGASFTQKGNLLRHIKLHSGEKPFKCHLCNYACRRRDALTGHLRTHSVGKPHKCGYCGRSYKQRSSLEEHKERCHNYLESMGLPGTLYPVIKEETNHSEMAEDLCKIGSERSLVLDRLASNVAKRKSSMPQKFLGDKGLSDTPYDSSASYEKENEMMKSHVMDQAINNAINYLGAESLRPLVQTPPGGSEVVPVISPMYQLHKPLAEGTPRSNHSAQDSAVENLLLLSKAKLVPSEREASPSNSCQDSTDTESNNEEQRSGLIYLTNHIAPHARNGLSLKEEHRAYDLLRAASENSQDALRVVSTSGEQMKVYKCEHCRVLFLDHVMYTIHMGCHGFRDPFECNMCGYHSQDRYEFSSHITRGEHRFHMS
T4 sequence (Q96SW2 whole entry): as the sequence (Q96SW2 whole entry) above
T4 sequence (Q16531 whole entry partner): as the sequence (Q16531 whole entry partner) above
GSPT1, sequence (P15170 whole entry): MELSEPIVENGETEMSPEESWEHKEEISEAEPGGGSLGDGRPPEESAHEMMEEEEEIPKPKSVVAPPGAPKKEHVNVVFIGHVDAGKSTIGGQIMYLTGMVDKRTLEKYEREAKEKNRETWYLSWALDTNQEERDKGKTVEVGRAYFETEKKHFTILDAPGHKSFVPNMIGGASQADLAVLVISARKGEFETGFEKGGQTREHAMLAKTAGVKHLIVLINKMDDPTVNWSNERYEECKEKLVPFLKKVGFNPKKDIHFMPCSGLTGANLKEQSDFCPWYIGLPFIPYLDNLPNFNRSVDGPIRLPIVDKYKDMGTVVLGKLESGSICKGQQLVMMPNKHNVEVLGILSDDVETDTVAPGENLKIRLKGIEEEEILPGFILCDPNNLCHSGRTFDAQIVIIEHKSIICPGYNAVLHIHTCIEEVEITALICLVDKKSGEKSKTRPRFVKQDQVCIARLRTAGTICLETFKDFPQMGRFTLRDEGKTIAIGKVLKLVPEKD
GSPT1, sequence (Q96SW2 whole entry): as the sequence (Q96SW2 whole entry) above
GSPT1, sequence (Q16531 whole entry partner): as the sequence (Q16531 whole entry partner) above

Take `Cc1c(Cl)cc(NC(=O)NCc2ccc3c(c2)C(=O)N(C2CCC(=O)NC2=O)C3)cc1CC1COCOC1` (centres unmarked) [Compound 132]: the CK1alpha degradation result in assay [1] was “C (C represents weak degradation at 30 μM (below 50%))”. The IKZF3 degradation entry in assay [2] is “A”. Further, the ZFP91 degradation entry in assay [3] is “C (C represents weak degradation at 30 μM (below 50%))”. Besides, the GSPT1 degradation result in assay [4] was “F (F represents degradation at 0.3 μM (>90%))”. The IKZF1 degradation result in assay [5] was “A”.
`Cc1ccc(NC(=O)NCc2ccc3c(c2)C(=O)N(C2CCC(=O)NC2=O)C3)c(Cl)c1Cl` (centres unmarked) [Compound 87]: the CK1alpha degradation entry in assay [1] is reported as “A”. Further, the IKZF3 degradation entry in assay [2] is “A”. For the same compound, the ZFP91 degradation entry in assay [3] is “A”. The GSPT1 degradation entry in assay [4] was “E (E represents degradation at 3 μM (>90%))”. In assay [5], the IKZF1 degradation result was “A”.
Consider `Cc1c(Cl)cc(NC(=O)OCc2ccc3c(c2)C(=O)N(C2CCC(=O)NC2=O)C3)cc1OCCN1CCOCC1` (centres unmarked) [Compound 248], for which the CK1alpha degradation entry in assay [1] is on record as “B (B represents trace degradation at 30 μM (below 20%))”. The IKZF3 degradation result in assay [2] is recorded as “B (B represents trace degradation at 30 μM (below 20%))”. Moreover, in assay [4], the GSPT1 degradation entry is reported as “F (F represents degradation at 0.3 μM (>90%))”. Also, the IKZF1 degradation entry in assay [5] is on record as “A”.
With `O=C1CCC(N2Cc3ccc(COC(=O)Nc4ccc(N5CCCCC5)nc4)cc3C2=O)C(=O)N1` (centres unmarked) [Compound 215], the CK1alpha degradation result in assay [1] is listed as “C (C represents weak degradation at 30 μM (below 50%))”. The IKZF3 degradation result in assay [2] was “B (B represents trace degradation at 30 μM (below 20%))”. The GSPT1 degradation result in assay [4] is reported as “F (F represents degradation at 0.3 μM (>90%))”. In assay [5], the IKZF1 degradation entry was “A”.
With `O=C1CCC(N2Cc3ccc(CNC(=O)Nc4cccc(CN5CCOCC5)c4)cc3C2=O)C(=O)N1` (centres unmarked) [Compound 105], the CK1alpha degradation entry in assay [1] is reported as “A”. In addition, the IKZF3 degradation result in assay [2] is given as “A”. For the same compound, the ZFP91 degradation entry in assay [3] was “B (B represents trace degradation at 30 μM (below 20%))”. In addition, in assay [4], the GSPT1 degradation result is given as “E (E represents degradation at 3 μM (>90%))”. Moreover, in assay [5], the IKZF1 degradation result was “B (B represents trace degradation at 30 μM (below 20%))”.
On to `CCc1ncc(NC(=O)OCc2ccc3c(c2)C(=O)N(C2CCC(=O)NC2=O)C3)cc1C` (centres unmarked) [Compound 249], for which the CK1alpha degradation entry in assay [1] is given as “B (B represents trace degradation at 30 μM (below 20%))”. In assay [2], the IKZF3 degradation result is on record as “A”. Besides, the ZFP91 degradation result in assay [3] is on record as “B (B represents trace degradation at 30 μM (below 20%))”. The GSPT1 degradation result in assay [4] is listed as “F (F represents degradation at 0.3 μM (>90%))”. The IKZF1 degradation result in assay [5] is on record as “A”.
With `Cc1cc(C)c(NC(=O)NCc2ccc3c(c2)C(=O)N(C2CCC(=O)NC2=O)C3)cc1Cl` (centres unmarked) [Compound 85], in assay [1], the CK1alpha degradation result was “B (B represents trace degradation at 30 μM (below 20%))”. Further, the IKZF3 degradation result in assay [2] is reported as “A”. Moreover, the ZFP91 degradation entry in assay [3] is “A”. Also, the GSPT1 degradation result in assay [4] is “E (E represents degradation at 3 μM (>90%))”. Moreover, the IKZF1 degradation entry in assay [5] is “A”.
Regarding `COc1cc(C)c(Cl)cc1NC(=O)OCc1ccc2c(c1)C(=O)N(C1CCC(=O)NC1=O)C2` (centres unmarked) [Compound 201], in assay [1], the CK1alpha degradation entry is listed as “B (B represents trace degradation at 30 μM (below 20%))”. The IKZF3 degradation entry in assay [2] is “B (B represents trace degradation at 30 μM (below 20%))”. Besides, in assay [3], the ZFP91 degradation entry is “A”. In addition, the GSPT1 degradation entry in assay [4] is “F (F represents degradation at 0.3 μM (>90%))”. Besides, in assay [5], the IKZF1 degradation entry is on record as “A”.
As for `CC(C)(C)c1ccc(NC(=O)OCc2ccc3c(c2)C(=O)N(C2CCC(=O)NC2=O)C3)cc1` (centres unmarked) [Compound 247], the CK1alpha degradation result in assay [1] is “B (B represents trace degradation at 30 μM (below 20%))”. Further, the IKZF3 degradation result in assay [2] was “A”. The ZFP91 degradation result in assay [3] is “B (B represents trace degradation at 30 μM (below 20%))”. Also, the GSPT1 degradation entry in assay [4] is given as “F (F represents degradation at 0.3 μM (>90%))”. Further, the IKZF1 degradation result in assay [5] is listed as “A”.
For `Cc1c(Cl)cc(NC(=O)NCc2ccc3c(c2)C(=O)N(C2CCC(=O)NC2=O)C3)cc1CN1CCOCC1` (centres unmarked) [Compound 82], the CK1alpha degradation result in assay [1] is recorded as “A”. In assay [2], the IKZF3 degradation result is “A”. Moreover, the ZFP91 degradation entry in assay [3] is recorded as “A”. In addition, in assay [4], the GSPT1 degradation result is “F (F represents degradation at 0.3 μM (>90%))”. Moreover, in assay [5], the IKZF1 degradation entry is recorded as “A”.
For the compound `Cc1c(Cl)cc(NC(=O)NCc2ccc3c(c2)C(=O)N(C2CCC(=O)NC2=O)C3)cc1CN(C)C` (centres unmarked) [Compound 75], the CK1alpha degradation entry in assay [1] is given as “A”. Besides, the IKZF3 degradation result in assay [2] is recorded as “A”. The ZFP91 degradation result in assay [3] is recorded as “A”. In addition, the GSPT1 degradation result in assay [4] is given as “E (E represents degradation at 3 μM (>90%))”. In addition, in assay [5], the IKZF1 degradation result was “A”.
Regarding `Cc1ncc(NC(=O)OCc2ccc3c(c2)C(=O)N(C2CCC(=O)NC2=O)C3)cc1Cl` (centres unmarked) [Compound 206], the CK1alpha degradation entry in assay [1] was “A”. Further, the IKZF3 degradation entry in assay [2] is “B (B represents trace degradation at 30 μM (below 20%))”. For the same compound, in assay [4], the GSPT1 degradation entry is on record as “F (F represents degradation at 0.3 μM (>90%))”. In addition, in assay [5], the IKZF1 degradation entry is recorded as “A”.
Regarding `CC(C)(C)c1ccc(NC(=O)OCc2ccc3c(c2)C(=O)N(C2CCC(=O)NC2=O)C3)cn1` (centres unmarked) [Compound 243], in assay [1], the CK1alpha degradation entry is recorded as “C (C represents weak degradation at 30 μM (below 50%))”. Besides, in assay [2], the IKZF3 degradation entry is “B (B represents trace degradation at 30 μM (below 20%))”. Besides, the GSPT1 degradation entry in assay [4] is listed as “F (F represents degradation at 0.3 μM (>90%))”. Moreover, the IKZF1 degradation entry in assay [5] was “A”.
Regarding `O=C1CCC(N2Cc3ccc(COC(=O)Nc4ccc(-c5ccccc5)nc4)cc3C2=O)C(=O)N1` (centres unmarked) [Compound 242], in assay [1], the CK1alpha degradation result is recorded as “B (B represents trace degradation at 30 μM (below 20%))”. In assay [2], the IKZF3 degradation result is listed as “A”. Besides, the GSPT1 degradation result in assay [4] was “F (F represents degradation at 0.3 μM (>90%))”. Moreover, in assay [5], the IKZF1 degradation entry was “A”.
